Measured values reported in ChEMBL document CHEMBL1201862, “PubChem BioAssay data set” (2004).
Calls of active or inactive are those of the source.

Experiments:
[1] = inhibitors of Trypanosoma cruzi host-cell infection, confirmation, beta-gal luminescence, NIH3T3 host cells (AID 2630); assay type: functional, cell-based; details: Mus musculus
[2] = Vero E6 cell cytotoxicity, dose response, cytotoxicity control for non-replicating M. tuberculosis project, secondary assay (AID 492998); assay type: functional, VeroE6; details: Vero C1008
[3] = Luminescence Cell-Based/Microorganism Confirmation at Dose of Inhibitors of Trypanosoma cruzi Infection. [Related pubchem assays: 1885, 1968 ]; assay type: functional
[4] = target: T1, Zinc finger protein mex-5 (Caenorhabditis elegans, UniProt Q9XUB2); assay: MEX-5/TCR-2 RNA interaction inhibitors, dose response, biochemical, C. elegans, fluorescence polarization (AID 1960)
T1 sequence (Q9XUB2 whole entry): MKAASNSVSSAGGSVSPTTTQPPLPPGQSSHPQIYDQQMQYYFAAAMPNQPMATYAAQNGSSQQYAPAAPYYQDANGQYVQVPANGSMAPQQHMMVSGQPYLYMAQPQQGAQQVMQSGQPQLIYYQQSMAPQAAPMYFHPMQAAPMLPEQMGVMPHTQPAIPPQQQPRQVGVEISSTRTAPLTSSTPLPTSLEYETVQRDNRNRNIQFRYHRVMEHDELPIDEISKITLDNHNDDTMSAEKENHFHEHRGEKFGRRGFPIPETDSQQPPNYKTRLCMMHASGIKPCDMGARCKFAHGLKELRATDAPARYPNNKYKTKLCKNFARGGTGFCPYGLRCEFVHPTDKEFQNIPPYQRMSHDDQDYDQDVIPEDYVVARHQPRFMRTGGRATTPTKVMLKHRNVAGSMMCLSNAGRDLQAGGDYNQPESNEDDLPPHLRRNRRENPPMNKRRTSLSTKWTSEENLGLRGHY

[5] = target: T2, Caspase-3 (Homo sapiens, UniProt P42574); assay type: functional;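 further: Dose-response selectivity test against caspase-3 for candidate inhibitors of sentrin-specific proteases (SENPs)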
T2 sequence (P42574 whole entry): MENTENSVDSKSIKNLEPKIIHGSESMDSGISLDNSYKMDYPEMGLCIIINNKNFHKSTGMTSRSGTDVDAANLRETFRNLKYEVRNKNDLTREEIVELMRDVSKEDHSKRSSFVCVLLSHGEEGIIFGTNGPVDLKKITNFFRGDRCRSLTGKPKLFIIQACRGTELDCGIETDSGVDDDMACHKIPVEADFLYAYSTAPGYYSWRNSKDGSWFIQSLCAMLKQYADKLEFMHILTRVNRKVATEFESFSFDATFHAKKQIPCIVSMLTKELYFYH

[6] = target: T3, Hexokinase HKDC1 (Homo sapiens, UniProt Q2TB90); assay: HKDC1 hexokinase activators, dose response, biochemical, W721R variant (AID 504730); assay type: functional
T3 sequence (Q2TB90 whole entry): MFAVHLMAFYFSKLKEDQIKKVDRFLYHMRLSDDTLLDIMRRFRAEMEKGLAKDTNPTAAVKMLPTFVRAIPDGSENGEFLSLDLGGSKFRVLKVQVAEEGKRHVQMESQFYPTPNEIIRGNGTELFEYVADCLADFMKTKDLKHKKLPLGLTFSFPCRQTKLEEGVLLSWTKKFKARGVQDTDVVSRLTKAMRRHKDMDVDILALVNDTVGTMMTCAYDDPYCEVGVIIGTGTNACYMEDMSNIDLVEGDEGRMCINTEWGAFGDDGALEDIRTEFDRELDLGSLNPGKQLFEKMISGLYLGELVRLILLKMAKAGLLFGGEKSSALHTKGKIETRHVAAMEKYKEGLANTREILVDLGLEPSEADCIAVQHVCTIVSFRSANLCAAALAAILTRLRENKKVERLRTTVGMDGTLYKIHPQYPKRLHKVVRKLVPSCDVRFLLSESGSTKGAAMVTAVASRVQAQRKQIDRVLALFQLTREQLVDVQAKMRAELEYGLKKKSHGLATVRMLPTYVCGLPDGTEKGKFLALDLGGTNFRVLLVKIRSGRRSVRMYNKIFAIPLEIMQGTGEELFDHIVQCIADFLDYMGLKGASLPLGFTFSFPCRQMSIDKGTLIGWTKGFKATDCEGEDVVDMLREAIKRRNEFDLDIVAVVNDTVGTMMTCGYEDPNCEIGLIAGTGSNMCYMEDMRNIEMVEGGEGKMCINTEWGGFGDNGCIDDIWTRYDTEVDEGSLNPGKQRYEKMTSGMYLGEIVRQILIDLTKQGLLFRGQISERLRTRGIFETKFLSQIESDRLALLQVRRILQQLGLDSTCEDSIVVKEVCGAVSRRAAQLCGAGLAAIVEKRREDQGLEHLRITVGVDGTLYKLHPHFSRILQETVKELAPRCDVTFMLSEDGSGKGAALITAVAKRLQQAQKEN

[7] = target: T4, Lysine-specific demethylase 4C (Homo sapiens, UniProt Q9H3R0); assay: GASC-1 (JMJD2C) histone demethylase inhibitors, dose response, biochemical, DELFIA europium, cherry-picked samples (AID 488835); assay type: functional
T4 sequence (Q9H3R0 whole entry): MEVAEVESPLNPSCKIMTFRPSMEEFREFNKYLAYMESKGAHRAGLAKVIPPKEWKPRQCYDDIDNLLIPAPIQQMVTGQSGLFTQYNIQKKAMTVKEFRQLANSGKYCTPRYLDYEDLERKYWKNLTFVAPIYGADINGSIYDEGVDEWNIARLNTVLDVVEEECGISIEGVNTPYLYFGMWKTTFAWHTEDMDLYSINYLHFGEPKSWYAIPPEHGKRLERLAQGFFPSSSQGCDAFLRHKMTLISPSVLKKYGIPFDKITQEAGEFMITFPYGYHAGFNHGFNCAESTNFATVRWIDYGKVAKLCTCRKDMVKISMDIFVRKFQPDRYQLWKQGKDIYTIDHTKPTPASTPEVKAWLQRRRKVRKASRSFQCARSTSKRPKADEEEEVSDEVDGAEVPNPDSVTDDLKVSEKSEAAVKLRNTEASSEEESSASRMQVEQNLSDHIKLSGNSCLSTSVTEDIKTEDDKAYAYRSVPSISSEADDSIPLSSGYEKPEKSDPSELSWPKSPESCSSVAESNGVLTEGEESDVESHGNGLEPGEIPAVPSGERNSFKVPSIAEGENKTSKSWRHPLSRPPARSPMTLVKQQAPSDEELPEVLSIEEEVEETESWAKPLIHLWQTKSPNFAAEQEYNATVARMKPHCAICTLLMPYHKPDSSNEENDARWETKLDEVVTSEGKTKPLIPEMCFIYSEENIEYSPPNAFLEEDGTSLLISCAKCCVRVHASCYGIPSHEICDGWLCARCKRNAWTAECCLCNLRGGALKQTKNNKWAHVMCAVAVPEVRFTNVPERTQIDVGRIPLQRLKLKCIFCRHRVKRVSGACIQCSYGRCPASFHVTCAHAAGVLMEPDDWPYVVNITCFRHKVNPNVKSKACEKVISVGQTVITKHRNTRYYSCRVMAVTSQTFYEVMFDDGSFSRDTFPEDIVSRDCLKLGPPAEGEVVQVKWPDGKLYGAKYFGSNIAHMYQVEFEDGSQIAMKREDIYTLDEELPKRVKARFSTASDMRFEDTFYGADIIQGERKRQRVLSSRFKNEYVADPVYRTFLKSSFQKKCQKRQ

Compound: O=C(CNc1cccc2ccccc12)N/N=C/c1ccc([N+](=O)[O-])o1
- EC50 [1]: 0.022 µM (active)
- CC50 [2]: > 20 µM (active)
- EC50 [3]: 0.022 µM (active)

Compound: O=C(O)CSc1cc(NS(=O)(=O)c2ccc(Br)cc2)c2ccccc2c1O
- EC50 [4]: 8.17 µM (active)

Compound: O=C1NC(=S)N/C1=C/c1cc2c(cc1[N+](=O)[O-])OCO2
- IC50 [5]: 27.6 µM (active)
- EC50 [6]: > 80 µM (inactive)
- AC50 [7]: 30.4 µM (active)
